{"source": "paper PMC9865587", "about": "“Inhibitory Effects of 2-Aminoethoxydiphenyl Borate (2-APB) on Three KV1 Channel Currents” (Molecules, 2023)", "experiment_in_all_cases": "cell-based", "key": {"[1]": {"target": "T1, KV1.4 (Homo sapiens, UniProt P22459, N-TERMINALTRUNCATION(1–61DELETED))", "T1 construct": "gene KCNA4", "T1 sequence (P22459 62-653, stated change not applied)": "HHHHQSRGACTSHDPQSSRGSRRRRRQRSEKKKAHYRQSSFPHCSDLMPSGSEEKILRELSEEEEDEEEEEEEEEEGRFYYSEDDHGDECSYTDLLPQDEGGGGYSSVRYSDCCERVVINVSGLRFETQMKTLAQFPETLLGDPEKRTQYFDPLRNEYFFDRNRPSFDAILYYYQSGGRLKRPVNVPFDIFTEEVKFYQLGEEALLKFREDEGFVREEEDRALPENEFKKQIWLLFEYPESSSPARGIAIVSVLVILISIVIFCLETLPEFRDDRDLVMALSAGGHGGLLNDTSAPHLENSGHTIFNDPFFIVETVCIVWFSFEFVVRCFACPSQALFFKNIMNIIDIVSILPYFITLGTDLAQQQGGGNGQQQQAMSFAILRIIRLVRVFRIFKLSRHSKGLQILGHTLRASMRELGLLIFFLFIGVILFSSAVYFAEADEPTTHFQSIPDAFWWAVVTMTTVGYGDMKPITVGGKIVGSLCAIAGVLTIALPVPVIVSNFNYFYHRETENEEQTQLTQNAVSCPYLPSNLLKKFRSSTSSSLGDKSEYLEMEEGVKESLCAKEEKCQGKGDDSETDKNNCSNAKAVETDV"}, "[2]": {"target": "T2, KV1.4 (Homo sapiens, UniProt P22459, V556A)", "T2 construct": "gene KCNA4", "T2 sequence (P22459 whole entry V556A)": "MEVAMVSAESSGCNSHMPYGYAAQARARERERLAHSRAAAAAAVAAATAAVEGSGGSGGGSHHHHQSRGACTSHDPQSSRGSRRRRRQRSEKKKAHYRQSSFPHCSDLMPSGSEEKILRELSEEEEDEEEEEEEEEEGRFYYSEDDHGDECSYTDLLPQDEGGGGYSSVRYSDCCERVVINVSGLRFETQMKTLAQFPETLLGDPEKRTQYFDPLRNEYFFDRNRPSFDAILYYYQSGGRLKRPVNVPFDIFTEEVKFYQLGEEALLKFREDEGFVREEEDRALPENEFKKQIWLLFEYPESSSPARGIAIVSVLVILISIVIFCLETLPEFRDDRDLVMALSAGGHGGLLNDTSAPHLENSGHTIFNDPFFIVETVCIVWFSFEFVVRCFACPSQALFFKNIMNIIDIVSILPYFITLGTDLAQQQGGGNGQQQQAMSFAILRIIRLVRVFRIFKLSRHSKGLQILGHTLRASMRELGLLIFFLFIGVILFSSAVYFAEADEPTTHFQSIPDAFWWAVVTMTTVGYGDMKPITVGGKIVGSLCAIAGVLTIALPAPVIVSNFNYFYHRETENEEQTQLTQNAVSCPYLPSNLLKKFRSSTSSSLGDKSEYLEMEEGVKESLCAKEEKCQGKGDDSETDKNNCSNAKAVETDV", "settings": "CHO"}, "[3]": {"target": "T3, KV1.4 (Homo sapiens, UniProt P22459, T551A)", "T3 construct": "gene KCNA4", "T3 sequence (P22459 whole entry T551A)": "as the sequence (P22459 whole entry V556A) above, with T551A, A556V counted along it", "settings": "CHO"}, "[4]": {"target": "T4, KV1.4 (Homo sapiens, UniProt P22459, V549A)", "T4 construct": "gene KCNA4", "T4 sequence (P22459 whole entry V549A)": "as the sequence (P22459 whole entry V556A) above, with V549A, A556V counted along it", "settings": "CHO"}, "[5]": {"target": "T5, KV1.4 (Homo sapiens, UniProt P22459, V558A)", "T5 construct": "gene KCNA4", "T5 sequence (P22459 whole entry V558A)": "as the sequence (P22459 whole entry V556A) above, with A556V, V558A counted along it", "settings": "CHO"}, "[6]": {"target": "T6, KV1.4 (Homo sapiens, UniProt P22459, L554A)", "T6 construct": "gene KCNA4", "T6 sequence (P22459 whole entry L554A)": "as the sequence (P22459 whole entry V556A) above, with L554A, A556V counted along it", "settings": "CHO"}, "[7]": {"target": "T7, KV1.3 (Homo sapiens, UniProt P22001)", "T7 construct": "gene KCNA3"}, "[8]": {"target": "T8, KV1.4 (Homo sapiens, UniProt P22459, A553V)", "T8 construct": "gene KCNA4", "T8 sequence (P22459 whole entry A553V)": "as the sequence (P22459 whole entry V556A) above, with A553V, A556V counted along it", "settings": "CHO"}, "[9]": {"target": "T9, KV1.2 (Homo sapiens, UniProt P16389)", "T9 construct": "gene KCNA2", "T9 sequence (P16389 whole entry)": "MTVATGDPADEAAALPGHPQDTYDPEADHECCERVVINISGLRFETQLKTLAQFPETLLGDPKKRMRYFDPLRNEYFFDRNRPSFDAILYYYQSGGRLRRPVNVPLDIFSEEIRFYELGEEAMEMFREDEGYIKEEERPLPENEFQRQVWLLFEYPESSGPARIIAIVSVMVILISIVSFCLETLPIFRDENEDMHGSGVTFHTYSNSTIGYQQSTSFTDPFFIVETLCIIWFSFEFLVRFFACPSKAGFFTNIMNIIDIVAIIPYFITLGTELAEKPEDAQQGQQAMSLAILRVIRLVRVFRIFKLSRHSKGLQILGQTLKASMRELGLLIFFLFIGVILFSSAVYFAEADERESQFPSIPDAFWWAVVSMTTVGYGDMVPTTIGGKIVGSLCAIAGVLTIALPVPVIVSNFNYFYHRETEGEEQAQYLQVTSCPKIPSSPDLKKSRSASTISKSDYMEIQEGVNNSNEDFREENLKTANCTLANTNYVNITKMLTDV"}, "[10]": {"target": "T10, KV1.4 (Homo sapiens, UniProt P22459)", "T10 construct": "gene KCNA4", "T10 sequence (P22459 whole entry)": "as the sequence (P22459 whole entry V556A) above, with A556V counted along it"}}, "data": [{"compound": "NCCOB(c1ccccc1)c1ccccc1", "note": "[2-APB]", "values": [{"measurement": "IC50", "setting": "[1]", "value": 310, "unit": "µM"}, {"measurement": "inhibition at 100 µM", "setting": "[2]", "value": 60.8, "unit": "%"}, {"measurement": "inhibition at 100 µM", "setting": "[3]", "value": 37.8, "unit": "%"}, {"measurement": "inhibition at 100 µM", "setting": "[4]", "value": 44.1, "unit": "%"}, {"measurement": "inhibition at 100 µM", "setting": "[5]", "value": 57.3, "unit": "%"}, {"measurement": "inhibition at 100 µM", "setting": "[6]", "value": 32.9, "unit": "%"}, {"measurement": "IC50", "setting": "[7]", "value": 455, "unit": "µM"}, {"measurement": "inhibition at 100 µM", "setting": "[8]", "value": 18.4, "unit": "%"}, {"measurement": "IC50", "setting": "[9]", "value": 310, "unit": "µM"}, {"measurement": "IC50", "setting": "[10]", "value": 67.3, "unit": "µM"}]}]}
